According to patent publication US20240270731A1, “[…]” (ALEBUND PHARMACEUTICALS (HONG KONG) LIMITED, priority 2021, published 2024):

What was measured:
[1] = 7-day repeated oral gavage, body weights of ICR mice; assay type: in vivo; settings: for Weight Gain compared with Day 0: n=10
Description: After 3 days of acclimatization, ICR mice were grouped according to their body weights. The day of grouping is designated as Day 0. […] The animals were weighed and recorded daily.

[2] = tested on: uninephrectomied db/db mice; assay: Diabetic nephropathy pharmacodynamic model (uninephrectomied db/db mice); settings: Compound 2 treatment, oral once per day
Description: Housing temperature was maintained at 22-26° C. and humidity at 40%-60%. Mice were allowed to access food and water ad libitum. […] Buprenorphine was applied after surgery.
Two weeks after surgery, db/db mice were randomly assigned into 5 groups. Wild type mice were used for the control animals. […] Compounds were orally administrated once per day for 10 weeks.
At the 5th and 9th week after compound administration, mice were placed in metabolic cages for urine collection. Albumin level was measured for 24 hr albumin excretion calculation. At the 10th week after treatment, the animals were sacrificed for kidney dissection. The kidney was fixed in 10% neutral buffed formalin, then paraffin-embedded for histopathological analysis. Glomerulosclerosis was assessed by evaluating glomerular basement membrane, mesangial expansion, nodular sclerosis and glomerulosclerosis.
Graphpad 8.0 software was used for statistical analysis. The difference between the values were analyzed with one-way ANOVA. The difference between histopathological score was analyzed with Kruskal-Wallis nonparameter test.

[3] = tested on: db/db type 2 diabetes model; assay: Pharmacodynamics study on the db/db type 2 diabetes model; settings: for Statistical difference (p) of the blood glucose level between treatment group and vehicle group: random blood glucose
Description: 45 db/db mice were evenly divided into 5 groups before the initiation of treatment based on the body weights, serum triglyceride (TG) levels, and random blood glucose levels.
All animals were weighed daily before each dosing and treated daily for 14 consecutive days.
All the data was imported into an Excel file and presented as Mean±SEM. Graphpad Prism 7.0 software was used for data statistical analysis by One-way or Two-way ANOVA, with P<0.05 as the criterion of significant differences.

[4] = tested on: rat model of hyperlipidemia induced by high cholesterol diet; assay: Rat model of hyperlipidemia induced by high cholesterol diet (serum TG, NEFA); assay type: in vivo, Sprague-Dawley rats; settings: for Serum TG / Serum NEFA: mean ± SD, n=6
Description: On the day before the start of the administration (Day 0), the animals were divided into 7 groups based on body weights and serum indicators and were continually fed with the high-cholesterol diet. The treatment groups were orally dosed with either compound or vehicle while continuing the high-cholesterol diet for a total of 1 week. The animals were weighed daily before the treatment, and the compounds were given at 9:00-9:30 in the morning based on the body weight of the day.

[5] = 1 mg/kg (Aleglitazar: Day 6; Compound 2: Day 4 and 5; Compounds 4 and 10: Day 4 to Day 7)
[6] = Day 8, 0.2 mg/kg oral QD x 7 days
[7] = Day 8, 0.6 mg/kg oral QD x 7 days

SMILES: [2H]c1cccc([2H])c1-c1nc(CC([2H])([2H])Oc2ccc(C[C@H](OC)C(=O)O)c3sccc23)c(C)o1 (single isomer, unassigned) [Compound 10]
- Daily average weight gain compared with the vehicle group [1, 5]: significantly higher
- Weight Gain compared with Day 0 ([1]; Day 1, 1 mg/kg oral QD): 0.34 ± 0.17 g
- Weight Gain compared with Day 0 ([1]; Day 2, 1 mg/kg oral QD): 1.63 ± 0.41 g
- Weight Gain compared with Day 0 ([1]; Day 3, 1 mg/kg oral QD): 2.96 ± 0.37 g
- Weight Gain compared with Day 0 ([1]; Day 4, 1 mg/kg oral QD): 3.85 ± 0.38 g
- Weight Gain compared with Day 0 ([1]; Day 5, 1 mg/kg oral QD): 4.59 ± 0.39 g
- Weight Gain compared with Day 0 ([1]; Day 6, 1 mg/kg oral QD): 5.75 ± 0.39 g
- Weight Gain compared with Day 0 ([1]; Day 7, 1 mg/kg oral QD): 6.11 ± 0.53 g

SMILES: [2H]C([2H])(Cc1nc(-c2ccccc2)oc1C)Oc1ccc(C[C@H](OC)C(=O)O)c2sccc12 (single isomer, unassigned) [Compound 2]
- Daily average weight gain compared with the vehicle group ([1]; 0.2 mg/kg (Aleglitazar: Day 4 and Day 5; Compound 2: throughout the study)): no significant difference
- Daily average weight gain compared with the vehicle group [1, 5]: significantly higher
- Weight Gain compared with Day 0 ([1]; Day 1, 0.2 mg/kg oral QD): 0.45 ± 0.28 g
- Weight Gain compared with Day 0 ([1]; Day 1, 1 mg/kg oral QD): 0.4 ± 0.17 g
- Weight Gain compared with Day 0 ([1]; Day 2, 0.2 mg/kg oral QD): 1.42 ± 0.22 g
- Weight Gain compared with Day 0 ([1]; Day 2, 1 mg/kg oral QD): 1.57 ± 0.26 g
- Weight Gain compared with Day 0 ([1]; Day 3, 0.2 mg/kg oral QD): 2.56 ± 0.23 g
- Weight Gain compared with Day 0 ([1]; Day 3, 1 mg/kg oral QD): 2.71 ± 0.19 g
- Weight Gain compared with Day 0 ([1]; Day 4, 0.2 mg/kg oral QD): 2.96 ± 0.23 g
- Weight Gain compared with Day 0 ([1]; Day 4, 1 mg/kg oral QD): 3.61 ± 0.19 g
- Weight Gain compared with Day 0 ([1]; Day 5, 0.2 mg/kg oral QD): 3.73 ± 0.34 g
- Weight Gain compared with Day 0 ([1]; Day 5, 1 mg/kg oral QD): 3.96 ± 0.29 g
- Weight Gain compared with Day 0 ([1]; Day 6, 0.2 mg/kg oral QD): 4.66 ± 0.39 g
- Weight Gain compared with Day 0 ([1]; Day 6, 1 mg/kg oral QD): 4.84 ± 0.4 g
- Weight Gain compared with Day 0 ([1]; Day 7, 0.2 mg/kg oral QD): 5.08 ± 0.42 g
- Weight Gain compared with Day 0 ([1]; Day 7, 1 mg/kg oral QD): 5.44 ± 0.36 g
- Reduction of urine albumin [2]: More than 50%
- Average daily body weights compared with the vehicle group ([3]; Day 10 to Day 15, Aleglitazar 0.2 mg/kg, Compound 2 0.05, 0.2, 1 mg/kg): significantly higher
- Statistical difference (p) of the blood glucose level between OGTT treatment group and vehicle group ([3]; OGTT Day 14, 0 min, 0.05 mpk): p > 0.05
- Statistical difference (p) of the blood glucose level between OGTT treatment group and vehicle group ([3]; OGTT Day 14, 0 min, 0.2 mpk): p < 0.01
- Statistical difference (p) of the blood glucose level between OGTT treatment group and vehicle group ([3]; OGTT Day 14, 0 min, 1 mpk): p < 0.0001
- Statistical difference (p) of the blood glucose level between OGTT treatment group and vehicle group ([3]; OGTT Day 14, 15 min, 0.05 mpk): p > 0.05
- Statistical difference (p) of the blood glucose level between OGTT treatment group and vehicle group ([3]; OGTT Day 14, 15 min, 0.2 mpk): p > 0.05
- Statistical difference (p) of the blood glucose level between OGTT treatment group and vehicle group ([3]; OGTT Day 14, 15 min, 1 mpk): p < 0.0001
- Statistical difference (p) of the blood glucose level between OGTT treatment group and vehicle group ([3]; OGTT Day 14, 30 min, 0.05 mpk): p > 0.05
- Statistical difference (p) of the blood glucose level between OGTT treatment group and vehicle group ([3]; OGTT Day 14, 30 min, 0.2 mpk): p > 0.05
- Statistical difference (p) of the blood glucose level between OGTT treatment group and vehicle group ([3]; OGTT Day 14, 30 min, 1 mpk): p < 0.05
- Statistical difference (p) of the blood glucose level between OGTT treatment group and vehicle group ([3]; OGTT Day 14, 60 min, 0.05 mpk): p > 0.05
- Statistical difference (p) of the blood glucose level between OGTT treatment group and vehicle group ([3]; OGTT Day 14, 60 min, 0.2 mpk): p < 0.01
- Statistical difference (p) of the blood glucose level between OGTT treatment group and vehicle group ([3]; OGTT Day 14, 60 min, 1 mpk): p < 0.0001
- Statistical difference (p) of the blood glucose level between OGTT treatment group and vehicle group ([3]; OGTT Day 14, 120 min, 0.05 mpk): p > 0.05
- Statistical difference (p) of the blood glucose level between OGTT treatment group and vehicle group ([3]; OGTT Day 14, 120 min, 0.2 mpk): p < 0.05
- Statistical difference (p) of the blood glucose level between OGTT treatment group and vehicle group ([3]; OGTT Day 14, 120 min, 1 mpk): p < 0.001
- Statistical difference (p) of the blood glucose level between treatment group and vehicle group ([3]; Day 0, 0.05 mpk): p > 0.05
- Statistical difference (p) of the blood glucose level between treatment group and vehicle group ([3]; Day 0, 0.2 mpk): p > 0.05
- Statistical difference (p) of the blood glucose level between treatment group and vehicle group ([3]; Day 0, 1 mpk): p > 0.05
- Statistical difference (p) of the blood glucose level between treatment group and vehicle group ([3]; Day 7, 0.05 mpk): p > 0.05
- Statistical difference (p) of the blood glucose level between treatment group and vehicle group ([3]; Day 7, 0.2 mpk): p > 0.05
- Statistical difference (p) of the blood glucose level between treatment group and vehicle group ([3]; Day 7, 1 mpk): p < 0.05
- Statistical difference (p) of the blood glucose level between treatment group and vehicle group ([3]; Day 14, 0.05 mpk): p > 0.05
- Statistical difference (p) of the blood glucose level between treatment group and vehicle group ([3]; Day 14, 0.2 mpk): p < 0.05
- Statistical difference (p) of the blood glucose level between treatment group and vehicle group ([3]; Day 14, 1 mpk): p < 0.0001
- Serum TG ([4]; Day 0 (day before treatment), group later dosed 0.2 mg/kg oral QD x 7 days): 4.27 ± 1.61 mmol/L
- Serum TG ([4]; Day 0 (day before treatment), group later dosed 0.6 mg/kg oral QD x 7 days): 4.11 ± 1.10 mmol/L
- Serum NEFA [4, 6]: 431.50 ± 151.63 µmol/L
- Serum TG [4, 6]: 1.71 ± 0.72 mmol/L
- Serum NEFA [4, 7]: 444.33 ± 119.12 µmol/L
- Serum TG [4, 7]: 1.86 ± 0.99 mmol/L

SMILES: CO[C@@H](Cc1ccc(OCCc2nc(-c3ccccc3)oc2C)c2ccsc12)C(=O)O (single isomer, unassigned) [Compound 4]
- Serum NEFA compared with Aleglitazar ([4]; 0.2 mg/kg, T-test, P<0.05): significantly reduce
- Serum TG and NEFA levels compared with the vehicle group ([4]; Day 8, both 0.2 mg/kg and 0.6 mg/kg): significantly reduce
